According to article PMC8113459, “Selective inhibition of cullin 3 neddylation through covalent targeting DCN1 protects mice from acetaminophen-induced liver toxicity” (Nature Communications, 2021):
“And” between values parts separate entries of the source, which are not always exact repeats. Equal values may be shown once.

Test system: mice
Assay: 14-day toxicity study in mice
Assay type: in vivo, mouse
Details: for whole animal: body weight of individual male mouse; for whole animal / AdrenalGlands / Brain / Epidimydes (paired) / Heart / KidneyL / KidneyR / Liver / Spleen / Testes (paired) / Thymus: in g (unit assumed); for AdrenalGlands / Brain / Epidimydes (paired) / Heart / KidneyL / KidneyR / Liver / Spleen / Testes (paired) / Thymus: organ weight of individual male mouse; for RelGonads / Relative KidneyL / RelativeHeart / RelativeKidneyR / RelativeLiver / RelativeSpleen / RelativeThymus / RelAdrenGl / RelBrain / RelEpid: organ weight relative to whole animal; for RelAdrenGl / RelBrain / RelEpid: in % (unit assumed)
Protocol: We evaluated DI-1859 for its potential toxicity in immunocompetent mice with daily, 50 mg/kg, intraperitoneal (IP) dosing for 14 consecutive days (Supplementary Table 3).
Supplementary Table 3. Overview Toxicity Study design DI-1859 study.
Group # # of Mice Drug Vol./ Test Article Treatment Diluent
(male/female) Route mouse dose Schedule

[1] = Clin Chem, individual male mouse, 50 mg/kg, 14 day, vehicle 20% PCP, listed as DI-1589, 50 mg/kg, in U/L (unit assumed)
[2] = Hemavet Values, individual male mouse, 50 mg/kg, 14 day, vehicle 20% PCP, listed as DI-1589, 50 mg/kg
[3] = 50 mg/kg, 14 day, vehicle 20% PCP
[4] = 50 mg/kg, 14 day, vehicle 20% PCP, listed as DI-1589, 50 mg/kg
[5] = mice, 50 mg/kg IP daily for 14 days
[6] = mice, 50 mg/kg IP qD(1-14), mean ± s.d., n=5
[7] = individual male mouse, 50 mg/kg, 14 day
[8] = individual male mouse, 50 mg/kg, 14 day, listed as DI-1589, 50 mg/kg
[9] = serum, mice, 50 mg/kg IP qD(1-14), mean ± s.d., n=5

C=C(CN(C)C)C(=O)NC[C@@H](NC(=O)[C@H](Cc1nc2ccc(C(C)C)cc2s1)NC(=O)CC)C1CCCCC1 [DI-1859]
% wt change (average) (50 mg/kg IP qD(1-14), Treat Day 2): -3.1% | % wt change (average) (50 mg/kg IP qD(1-14), Treat Day 3): -3.0% | ave. wgt. (mouse body weight) (50 mg/kg IP qD(1-14), Treat Day 3, n=5): 25.5 gm | % wt change (average) (50 mg/kg IP qD(1-14), Treat Day 4): -3.1% | ave. wgt. (mouse body weight) (50 mg/kg IP qD(1-14), Treat Day 4, n=5): 25.5 gm | % wt change (average) (50 mg/kg IP qD(1-14), Treat Day 5): -0.9% | ave. wgt. (mouse body weight) (50 mg/kg IP qD(1-14), Treat Day 5, n=5): 26.0 gm | % wt change (average) (50 mg/kg IP qD(1-14), Treat Day 6): -1.3% | ave. wgt. (mouse body weight) (50 mg/kg IP qD(1-14), Treat Day 6, n=5): 25.9 gm | % wt change (average) (50 mg/kg IP qD(1-14), Treat Day 7): -1.6% | ave. wgt. (mouse body weight) (50 mg/kg IP qD(1-14), Treat Day 7, n=5): 25.8 gm | % wt change (average) (50 mg/kg IP qD(1-14), Treat Day 8): -2.1% | ave. wgt. (mouse body weight) (50 mg/kg IP qD(1-14), Treat Day 8, n=5): 25.7 gm | % wt change (average) (50 mg/kg IP qD(1-14), Treat Day 9): -1.9% | ave. wgt. (mouse body weight) (50 mg/kg IP qD(1-14), Treat Day 9, n=5): 25.8 gm | % wt change (average) (50 mg/kg IP qD(1-14), Treat Day 10): -0.8% | ave. wgt. (mouse body weight) (50 mg/kg IP qD(1-14), Treat Day 10, n=5): 26.0 gm | % wt change (average) (50 mg/kg IP qD(1-14), Treat Day 11): -3.6% | ave. wgt. (mouse body weight) (50 mg/kg IP qD(1-14), Treat Day 11, n=5): 25.3 gm | % wt change (average) (50 mg/kg IP qD(1-14), Treat Day 12): -2.5% | ave. wgt. (mouse body weight) (50 mg/kg IP qD(1-14), Treat Day 12, n=5): 25.6 gm | % wt change (average) (50 mg/kg IP qD(1-14), Treat Day 13): -2.7% | ave. wgt. (mouse body weight) (50 mg/kg IP qD(1-14), Treat Day 13, n=5): 25.6 gm | % wt change (average) (50 mg/kg IP qD(1-14), Treat Day 14): -4.9% | ave. wgt. (mouse body weight) (50 mg/kg IP qD(1-14), Treat Day 14, n=5): 25.0 gm | ALT [1]: 34 and 26 and 24 and 31 | AST [1]: 57 and 46 and 61 and 55 and 35 | PDW (Hemavet Values, individual male mouse, 50 mg/kg, 14 day, vehicle 20% PCP): 0% | BA# [2]: 0.01 K/uL and 0.09 K/uL and 0.05 K/uL and 0.13 K/uL | BA% [2]: 0.11% and 0.74% and 1.42% and 0.22% and 1.34% | EO# [2]: 0.05 K/uL and 0.22 K/uL and 0.08 K/uL and 0.02 K/uL and 0.52 K/uL | EO% [2]: 0.65% and 1.86% and 2.37% and 0.68% and 5.39% | HB [2]: 12.9 g/dL and 12.5 g/dL and 10.2 g/dL and 11.4 g/dL and 11.5 g/dL | HCT [2]: 37.7% and 38.6% and 31.1% and 36.4% and 34.1% | LY# [2]: 5.23 K/uL and 7.93 K/uL and 2.4 K/uL and 1.63 K/uL and 5.65 K/uL | LY% [2]: 69.39% and 68.59% and 72.26% and 71.36% and 58.57% | MCH [2]: 14.5 pg and 13.7 pg and 14.3 pg | MCHC [2]: 34.2 g/dL and 32.4 g/dL and 32.8 g/dL and 31.3 g/dL and 33.7 g/dL | MCV [2]: 42.5 fL and 42.4 fL and 41.9 fL and 43.7 fL | MO# [2]: 0.42 K/uL and 0.63 K/uL and 0.21 K/uL and 0.22 K/uL | MO% [2]: 5.58% and 5.49% and 6.31% and 9.5% and 6.52% | MPV [2]: 4.9 fL and 4.7 fL and 5.2 fL and 5.7 fL and 4.8 fL | NE# [2]: 1.83 K/uL and 2.69 K/uL and 0.59 K/uL and 0.42 K/uL and 2.72 K/uL | NE% [2]: 24.26% and 23.31% and 17.63% and 18.24% and 28.19% | PLT [2]: 900 K/uL and 866 K/uL and 228 K/uL and 177 K/uL and 757 K/uL | RBC [2]: 8.88 M/uL and 9.11 M/uL and 7.43 M/uL and 8.33 M/uL and 8.03 M/uL | RDW [2]: 17.1% and 16.5% and 17.2% and 17.7% | WBC [2]: 7.54 K/uL and 11.56 K/uL and 3.32 K/uL and 2.28 K/uL and 9.64 K/uL | whole animal [3]: 24.600 | whole animal [4]: 25.300 and 25.200 and 26.400 and 27.400 | alterations in hematologic parameters [5]: no meaningful alterations | changes in body weights or organ weights [5]: no changes | tolerability [5]: well tolerated | Absolute organ weight, Adrenal glands (paired) [6]: 0.006 ± 0.002 g | Absolute organ weight, Brain [6]: 0.454 ± 0.009 g | Absolute organ weight, Epididymis (paired) [6]: 0.089 ± 0.011 g | Absolute organ weight, Heart [6]: 0.117 ± 0.009 g | Absolute organ weight, L kidney [6]: 0.182 ± 0.013 g | Absolute organ weight, Liver [6]: 1.596 ± 0.098 g | Absolute organ weight, R kidney [6]: 0.200 ± 0.007 g | Absolute organ weight, Spleen [6]: 0.073 ± 0.013 g | Absolute organ weight, Testes (paired) [6]: 0.222 ± 0.017 g | Absolute organ weight, Thymus [6]: 0.040 ± 0.027 g | Body weights [6]: 25.78 ± 1.11 g | Hematocrit [6]: 35.58 ± 3.02% | Hemoglobin [6]: 11.70 ± 1.06 g/dL | MCH [6]: 13.98 ± 0.39 pg | MCHC [6]: 32.88 ± 1.13 g/dL | MCV [6]: 42.60 ± 0.66 fL | MPV [6]: 5.06 ± 0.40 fL | Platelets [6]: 585.6 ± 354.1 10e3/uL | RBC [6]: 8.36 ± 0.67 10e6/ul | RDW [6]: 17.12 ± 0.43% | Relative organ weight, Adrenal glands (paired) [6]: 0.02 ± 0.01 % of body weight | Relative organ weight, Brain [6]: 1.76 ± 0.07 % of body weight | Relative organ weight, Epididymis (paired) [6]: 0.35 ± 0.05 % of body weight | Relative organ weight, Heart [6]: 0.45 ± 0.02 % of body weight | Relative organ weight, L kidney [6]: 0.71 ± 0.05 % of body weight | Relative organ weight, Liver [6]: 6.19 ± 0.19 % of body weight | Relative organ weight, R kidney [6]: 0.78 ± 0.04 % of body weight | Relative organ weight, Spleen [6]: 0.28 ± 0.04 % of body weight | Relative organ weight, Testes (paired) [6]: 0.86 ± 0.09 % of body weight | Relative organ weight, Thymus [6]: 0.16 ± 0.11 % of body weight | WBC [6]: 6.868 ± 3.993 10e3/ul | Microscopic finding, Epididymis: Sperm granuloma (mice, 50 mg/kg IP, 14 days): 0/10 | Microscopic finding, Liver: Necrosis, random (mice, 50 mg/kg IP, 14 days): 0/5 | Microscopic findings, Adrenal Glands (mice, 50 mg/kg IP, 14 days): 0/8 | Microscopic findings, Cecum (mice, 50 mg/kg IP, 14 days): 0/5 | Microscopic findings, Colon (mice, 50 mg/kg IP, 14 days): 0/5 | Microscopic findings, Heart (mice, 50 mg/kg IP, 14 days): 0/5 | Microscopic findings, Kidneys (mice, 50 mg/kg IP, 14 days): 0/10 | Microscopic findings, Lung (mice, 50 mg/kg IP, 14 days): 0/5 | Microscopic findings, Mesenteric lymph node (mice, 50 mg/kg IP, 14 days): 0/5 | Microscopic findings, Pancreas (mice, 50 mg/kg IP, 14 days): 0/5 | Microscopic findings, Small intestine (mice, 50 mg/kg IP, 14 days): 0/5 | Microscopic findings, Spleen (mice, 50 mg/kg IP, 14 days): 0/5 | Microscopic findings, Sternal bone marrow (mice, 50 mg/kg IP, 14 days): 0/5 | Microscopic findings, Stomach (mice, 50 mg/kg IP, 14 days): 0/5 | Microscopic findings, Thymus (mice, 50 mg/kg IP, 14 days): 0/5 | Microscopic findings, Urinary bladder (mice, 50 mg/kg IP, 14 days): 0/5 | AdrenalGlands [3]: 0.007 | Brain [3]: 0.448 | Epidimydes (paired) [3]: 0.106 | Heart [3]: 0.104 | KidneyL [3]: 0.187 | KidneyR [3]: 0.192 | Liver [3]: 1.500 | Spleen [3]: 0.075 | Testes (paired) [3]: 0.230 | Thymus [3]: 0.025 | AdrenalGlands [4]: 0.005 and 0.010 | Brain [4]: 0.465 and 0.450 and 0.445 and 0.462 | Epidimydes (paired) [4]: 0.091 and 0.076 and 0.086 and 0.084 | Heart [4]: 0.120 and 0.111 and 0.127 and 0.122 | KidneyL [4]: 0.188 and 0.165 and 0.173 and 0.199 | KidneyR [4]: 0.201 and 0.208 and 0.193 and 0.207 | Liver [4]: 1.540 and 1.722 and 1.680 | Spleen [4]: 0.063 and 0.074 and 0.062 and 0.093 | Testes (paired) [4]: 0.224 and 0.227 and 0.237 and 0.193 | Thymus [4]: 0.088 and 0.032 and 0.029 and 0.028 | RelGonads [7]: 0.935 | Relative KidneyL [7]: 0.760 | RelativeHeart [7]: 0.423 | RelativeKidneyR [7]: 0.780 | RelativeLiver [7]: 6.098 | RelativeSpleen [7]: 0.305 | RelativeThymus [7]: 0.102 | RelAdrenGl [7]: 0.028 | RelBrain [7]: 1.821 | RelEpid [7]: 0.431 | RelGonads [8]: 0.885 and 0.901 and 0.898 and 0.704 | Relative KidneyL [8]: 0.743 and 0.655 and 0.726 | RelativeHeart [8]: 0.474 and 0.440 and 0.481 and 0.445 | RelativeKidneyR [8]: 0.794 and 0.825 and 0.731 and 0.755 | RelativeLiver [8]: 6.087 and 6.111 and 6.523 and 6.131 | RelativeSpleen [8]: 0.249 and 0.294 and 0.235 and 0.339 | RelativeThymus [8]: 0.348 and 0.127 and 0.110 | RelAdrenGl [8]: 0.020 and 0.019 and 0.037 | RelBrain [8]: 1.838 and 1.786 and 1.686 | RelEpid [8]: 0.360 and 0.302 and 0.326 and 0.307 | ALT [9]: 28.2 ± 4.1 U/L | AST [9]: 50.8 ± 10.4 U/L
